Data reported in patent US9284297B2, “Halofuginone analogs for inhibition of tRNA synthetases and uses thereof” (President and Fellows of Harvard College, priority 2008, dated 2016).

Test system: TGFβ-induced Smad phosphorylation and lymphocyte responses to TGFβ
Experiment: TGFβ signaling in T and B cells
Format: cell-based, murine
Settings: low dose HF; 10 μM SB-431542
Method: FIG. 10. […] FIG. 10A is a set of FACS analyses of CD4^+ CD25^− T cells activated in Th1 or Th2 polarizing conditions, either in the presence or absence of TGFβ. DMSO, 10 nM HF, 10 nM MAZ1310, or 10 μM SB-431542 added as indicated at the time of activation. Intracellular cytokine staining was performed on expanded T cells on day 5.
FIG. 10D depicts western blot analyses of purified CD4^+ CD25^− T cells treated with DMSO, 40 nM MAZ1310, titrating concentrations of HF (2.5-40 nM) or 10 μM SB-431542 for 30 minutes in complete medium supplemented with 0.1% fetal calf serum. T cells were then activated in the presence or absence of 3 ng/ml TGFβ. Whole cell extracts were prepared after 1 hour of stimulation and western blot analyses were performed using the indicated antibodies.
Th17 differentiation is synergistically regulated by TGFβ and the pro-inflammatory cytokines IL-6 and IL-21. […] Since STAT3 is the major transducer of IL-6 and IL-21 signaling, the kinetics of STAT3 phosphorylation in HF-treated T cells were examined.
Whole cell lysates were generated from T cells activated for the indicated times. For STAT3 and Smad2/3 western blots cells were harvested, washed in PBS and lysed in 50 mM Tris, pH 7.4, 0.1% SDS, 1% Triton-X100, 140 mM NaCl, 1 mM EDTA, 1 mM EGTA supplemented with protease inhibitors tablets (Roche, Germany), 1 mM NaF and 1 mM Na3VO4. […]

NC(=O)c1ccc(-c2nc(-c3ccc4c(c3)OCO4)c(-c3ccccn3)[nH]2)cc1 [SB-431542]
effect on TGFβ-induced Smad phosphorylation and other lymphocyte responses to TGFβ: abrogated all responses to TGFβ
